Legend:
Type in all cases: cell-based
[1] = system: Candida albicans; test: Viable count of yeast fungi Candida albicans in aqueous glucosylglycerol solution with 3.5% w/w glucose; details: C. albicans; for Colony-forming units (CFU/g): 50% w/w glucosylglycerol, 3.5% w/w glucose, aqueous
Excerpt: (§1) In addition, a another test was analogously conducted with mold Aspergillus niger and yeast fungi Candida albicans , with an aqueous solution containing 50% w/w of 2-O-α-D glucosylglycerol and 3.5% w/w of glucose being used in this case.

[2] = system: E. coli DSM 1576; test: Viable count of E. coli DSM 1576 in aqueous glucosylglycerol solutions with 5% w/w glucose; details: for Colony-forming units (CFU/g): 5% w/w glucose, aqueous
[3] = system: Aspergillus niger; test: Viable count of mold Aspergillus niger in aqueous glucosylglycerol solution with 3.5% w/w glucose; details: A. niger; for Colony-forming units (CFU/g): 50% w/w glucosylglycerol, 3.5% w/w glucose, aqueous
Excerpt: as §1

[4] = glucosylglycerol of high concentration

`OCC(CO)O[C@H]1O[C@H](CO)[C@@H](O)[C@H](O)[C@H]1O` [Glucosylglycerol, 2-O-α-D-glucosylglycerol] was tested, and the “Colony-forming units (CFU/g)” value ([1]; 0 days) was 750,000 CFU/g, the “Colony-forming units (CFU/g)” value ([1]; 2 days) was 320,000 CFU/g and the “Colony-forming units (CFU/g)” value ([1]; 7 days) was 200,000 CFU/g. The “Colony-forming units (CFU/g)” value ([1]; 14 days) was 190,000 CFU/g, the “Colony-forming units (CFU/g)” value ([1]; 21 days) was 120,000 CFU/g and the “Colony-forming units (CFU/g)” value ([1]; 28 days) was 45,000 CFU/g. For the same molecule, the fungicidal effect [1, 4] was “fungicidal effects”, the “Colony-forming units (CFU/g)” value ([2]; 20% w/w glucosylglycerol, 0 days) was 300,000 CFU/g and the “Colony-forming units (CFU/g)” value ([2]; 20% w/w glucosylglycerol, 2 days) was 280,000 CFU/g. For the same molecule, the “Colony-forming units (CFU/g)” value ([2]; 20% w/w glucosylglycerol, 7 days) was 100,000 CFU/g, the “Colony-forming units (CFU/g)” value ([2]; 20% w/w glucosylglycerol, 14 days) was 5,000 CFU/g and the “Colony-forming units (CFU/g)” value ([2]; 20% w/w glucosylglycerol, 21 days) was under 100 CFU/g. The “Colony-forming units (CFU/g)” value ([2]; 20% w/w glucosylglycerol, 28 days) was under 100 CFU/g, the “Colony-forming units (CFU/g)” value ([2]; 30% w/w glucosylglycerol, 0 days) was 300,000 CFU/g and the “Colony-forming units (CFU/g)” value ([2]; 30% w/w glucosylglycerol, 2 days) was 130,000 CFU/g. For the same molecule, the “Colony-forming units (CFU/g)” value ([2]; 30% w/w glucosylglycerol, 7 days) was <1,000 CFU/g, the “Colony-forming units (CFU/g)” value ([2]; 30% w/w glucosylglycerol, 14 days) was under 100 CFU/g and the “Colony-forming units (CFU/g)” value ([2]; 30% w/w glucosylglycerol, 21 days) was under 100 CFU/g. For the same molecule, the “Colony-forming units (CFU/g)” value ([2]; 30% w/w glucosylglycerol, 28 days) was under 100 CFU/g, the “Colony-forming units (CFU/g)” value ([2]; 50% w/w glucosylglycerol, 0 days) was 300,000 CFU/g and the “Colony-forming units (CFU/g)” value ([2]; 50% w/w glucosylglycerol, 2 days) was 150,000 CFU/g. For the same molecule, the “Colony-forming units (CFU/g)” value ([2]; 50% w/w glucosylglycerol, 7 days) was <1,000 CFU/g, the “Colony-forming units (CFU/g)” value ([2]; 50% w/w glucosylglycerol, 14 days) was under 100 CFU/g and the “Colony-forming units (CFU/g)” value ([2]; 50% w/w glucosylglycerol, 21 days) was under 100 CFU/g. The “Colony-forming units (CFU/g)” value ([2]; 50% w/w glucosylglycerol, 28 days) was under 100 CFU/g, the bactericidal effect [2, 4] was “highly bactericidal effects” and the “Colony-forming units (CFU/g)” value ([3]; 0 days) was 750,000 CFU/g. The “Colony-forming units (CFU/g)” value ([3]; 2 days) was 350,000 CFU/g, the “Colony-forming units (CFU/g)” value ([3]; 7 days) was 200,000 CFU/g and the “Colony-forming units (CFU/g)” value ([3]; 14 days) was 170,000 CFU/g. For the same molecule, the “Colony-forming units (CFU/g)” value ([3]; 21 days) was 160,000 CFU/g, the “Colony-forming units (CFU/g)” value ([3]; 28 days) was 12,000 CFU/g and the fungicidal effect [3, 4] was “fungicidal effects”.

Reference: patent US20110306568A1, “COMPOSITION CONTAINING GLUCOSYLGLYCEROL” (priority 2008, published 2011)
